Reference: publication PMC8536575, “Acute effects of the imidacloprid metabolite desnitro-imidacloprid on human nACh receptors relevant for neuronal signaling” (Archives of Toxicology, 2021)
Several values for one entry are separate records, joined by “and”; a condition that tells them apart may be missing. Identical values can stand only once.

Key:
human α3β4 nAChR = target: T1, human α3β4 nAChR (Homo sapiens, UniProt P30926+P32297); test: Two-electrode voltage-clamp recordings, Xenopus laevis oocytes expressing human α3β4 nAChR; format: cell-based
T1 construct: expressed in transfected cells; host or cells: Xenopus laevis oocytes, mRNA injection, 0.33 ng α3 and 3.33 ng β4
T1 sequence (P32297 32-505): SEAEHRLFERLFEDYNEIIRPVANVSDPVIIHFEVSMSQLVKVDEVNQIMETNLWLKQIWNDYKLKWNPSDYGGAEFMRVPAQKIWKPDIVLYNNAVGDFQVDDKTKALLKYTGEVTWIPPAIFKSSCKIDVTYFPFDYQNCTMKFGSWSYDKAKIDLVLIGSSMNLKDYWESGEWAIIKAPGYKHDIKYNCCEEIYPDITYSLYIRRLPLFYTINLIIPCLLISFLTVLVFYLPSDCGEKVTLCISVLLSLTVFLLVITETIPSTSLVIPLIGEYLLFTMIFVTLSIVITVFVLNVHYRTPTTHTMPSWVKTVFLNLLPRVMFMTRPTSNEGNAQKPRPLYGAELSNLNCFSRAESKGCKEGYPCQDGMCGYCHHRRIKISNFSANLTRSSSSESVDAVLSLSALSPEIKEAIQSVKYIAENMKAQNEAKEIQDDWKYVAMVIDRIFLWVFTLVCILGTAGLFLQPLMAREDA
T1 sequence (P30926 22-498): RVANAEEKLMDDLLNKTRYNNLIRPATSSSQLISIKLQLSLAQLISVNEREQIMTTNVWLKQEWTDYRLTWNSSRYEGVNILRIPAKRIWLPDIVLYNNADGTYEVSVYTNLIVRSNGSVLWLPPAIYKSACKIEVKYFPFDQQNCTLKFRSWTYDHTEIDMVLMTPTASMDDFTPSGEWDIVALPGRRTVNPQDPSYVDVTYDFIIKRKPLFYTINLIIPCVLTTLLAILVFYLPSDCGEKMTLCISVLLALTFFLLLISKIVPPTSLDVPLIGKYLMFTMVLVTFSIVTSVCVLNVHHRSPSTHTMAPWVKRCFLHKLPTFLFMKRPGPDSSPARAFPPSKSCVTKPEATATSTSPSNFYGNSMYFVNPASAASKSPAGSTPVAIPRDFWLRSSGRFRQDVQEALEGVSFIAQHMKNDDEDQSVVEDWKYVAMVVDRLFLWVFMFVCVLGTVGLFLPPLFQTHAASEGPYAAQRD

mice = details: ref Chao and Casida [1997], Tomizawa et al. [2000], [2001]; cited from earlier work
[1] = Blood/plasma ratio and free fraction (PBTK input parameters); format: in vitro ADME
human α7 nAChR = target: T2, human α7 nAChR (Homo sapiens, UniProt P36544); test: Two-electrode voltage-clamp recordings, Xenopus laevis oocytes expressing human α7 nAChR; format: cell-based
T2 construct: expressed in transfected cells; host or cells: Xenopus laevis oocytes, injection of 30 ng mRNA (pCDNA3.1, T7 transcript)
T2 sequence (P36544 23-502): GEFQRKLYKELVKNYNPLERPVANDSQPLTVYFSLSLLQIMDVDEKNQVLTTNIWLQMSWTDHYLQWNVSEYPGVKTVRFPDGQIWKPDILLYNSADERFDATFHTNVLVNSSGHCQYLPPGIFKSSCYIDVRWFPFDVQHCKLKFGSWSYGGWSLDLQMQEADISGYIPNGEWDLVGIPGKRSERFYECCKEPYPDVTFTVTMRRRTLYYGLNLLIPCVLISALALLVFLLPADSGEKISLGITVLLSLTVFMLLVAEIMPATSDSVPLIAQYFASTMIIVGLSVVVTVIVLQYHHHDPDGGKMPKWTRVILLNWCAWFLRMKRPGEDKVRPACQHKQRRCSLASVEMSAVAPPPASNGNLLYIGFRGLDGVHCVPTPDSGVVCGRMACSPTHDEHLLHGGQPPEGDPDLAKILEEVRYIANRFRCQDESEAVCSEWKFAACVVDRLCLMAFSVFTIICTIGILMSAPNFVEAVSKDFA

nAChRs on SH-SY5Y cells [2] = target: nAChRs on SH-SY5Y cells (Homo sapiens, UniProt P36544); test: [Ca2+]i measurements in SH-SY5Y cells (agonist effect); format: cell-based; details: presence of PNU
Chain of nAChRs on SH-SY5Y cells (Homo sapiens, UniProt P36544) (P36544 23-502): as above
Protocol: (§1) SH-SY5Y cells were cultured as previously described (Attoff et al. [2016]). Briefly, they were cultured in MEM supplemented with 10% fetal bovine serum (Gibco, 31330095), 1% non-essential amino acid solution (Gibco, 11140035), 2 mM L-glutamine (Gibco, 25030024), 100 μg/ml streptomycin, and 100 U/ml penicillin (Gibco, 15140122). For maintenance culture, SH-SY5Y cells were seeded at 27,000 cells/cm^2 in 75 cm^2 cell culture flasks (Corning). The cells were passaged once a week using TrypLE Express Enzyme (Gibco). SH-SY5Y cells were differentiated into a neuronal-like phenotype by exchanging the maintenance medium with differentiation medium consisting of DMEM/F12 (Gibco, 31330095) supplemented with 1 mM L-glutamine (Gibco, 25030024), 100 μg streptomycin/mL, 100 U penicillin/mL, 1 × N2-supplement (Gibco, 17502048) and 1 µM all-trans retinoic acid (RA, Sigma, R2625) 24 h after seeding. The cells were incubated in 100% humidity at 37 °C in air with 5% CO2.
(§2) To measure acute changes in the average [Ca^2+]i of a population, SH-SY5Y cells were examined in the 96-well plate fluorescence reader FlexStation II (Molecular Devices) using the fluorophore Fura-2AM. SH-SY5Y (35,000 cells/well; 109,375 cells/cm^2) were seeded in maintenance culture medium in black 96-well plates with clear bottom (Corning, #3603). 24 h after seeding, maintenance medium was replaced with differentiation medium. After 72 h of differentiation, Fura-2AM dissolved in DMSO and diluted in KRH buffer (125 mM NaCl, 5 mM KCl, 1.2 mM MgSO4, 1.2 mM KH2PO4, 2.0 mM CaCl2, 6.0 mM D-glucose, and 25 mM HEPES (free acid), pH adjusted to 7.4 by 1.0 M NaOH) were added to the medium to a final concentration of 4 µM (Gustafsson et al. [2010]). The plates were incubated for 30 min at 37 °C before cells were washed once with 200 µl KRH buffer. 90 µl of KRH buffer without or with 10 µM PNU-120596 (PNU) and/or 125 µM mecamylamine (Mec) and/or test chemicals in different concentrations for antagonist experiments were added to the Fura-2AM-loaded cells. The plate was again incubated for 20 min to allow full hydrolysis of the AM group before the experiment. The fluorescence was assessed at 37 °C in the fluorescence plate reader (FlexStation II; Molecular Devices) at two different excitation wavelengths, 340 nm for Ca^2+-bound Fura-2 and 380 nm for free Fura-2, and at 510 nm emission, every 3.1 s using bottom read settings. After 26–29 s of initial baseline recording of the fluorescence intensity, 10 µl of the compound dilution (10 times higher than the final concentration to the cells) was transferred automatically by the FlexStation II (“Flex mode”) to the cell plate wells (five wells per concentration) and the fluorescence intensity was monitored for another 150 s. The ratio of fluorescence intensity at 340/380 nm was determined and the mean values from the baseline recording before the addition of test compounds was set to zero. The acute change in the Ca^2+ influx after the addition of the compounds was quantified as the area under the curve (AUC) using the SoftMax Pro 4.8 software (Molecular Devices). All test compounds were dissolved in DMSO. Compounds were diluted in KRH buffer in 1:3 series, with 100 µM as the highest concentration. As a negative control, 0.1% DMSO in KRH buffer was used.

nAChRs on SH-SY5Y cells [3] = test: as above; format: cell-based, human
Protocol: as §1, §2

[4] = from curve-fitted concentration–response data

Structure (SMILES): NC1=NCCN1Cc1ccc(Cl)nc1 [DN-IMI, desnitro-imidacloprid]
- EC50 (human α3β4 nAChR): 12.6 µM
- absolute EC25 (human α3β4 nAChR; [4]): 5.2 µM
- estimated maximum (human α3β4 nAChR; normalized to nicotine (1 mM)): ~ 0.65
- LD50 (mice): 6 to 24 mg/kg
- blood plasma ratio ([1]; blood and plasma, read-out: Blood/plasma ration [B/P]): 0.759
- fraction unbound ([1]; plasma, read-out: Free fraction [fu]): 0.841
- EC50 (human α7 nAChR): 31.6 µM
- estimated maximum, % of the maximal response to nicotine (human α7 nAChR): ~ 81%
- higher potency of DN-IMI than nicotine (human α7 nAChR; EC25 comparison on the receptors other than α4β2 (HS): α7 and α3β4): about 0.6 log-steps
- absolute EC25 (human α7 nAChR; [4]): 7.6 µM
- estimated maximum (human α7 nAChR; normalized to nicotine (1 mM)): ~ 0.81
- Emax (human α7 nAChR; read-out: estimated maximum, % of the maximal response to nicotine): 83%
- relative pEC50 (AUC of fluorescence) (nAChRs on SH-SY5Y cells [2]; normalized to 10 µM nicotine, fit for < 10 µM): 6.5 ± 0.07
- EC50 (nAChRs on SH-SY5Y cells [2]; read-out: half-maximal response concentration): 0.3 µM and ~0.3 µM
- response without PNU as % of the maximal response obtained in the presence of PNU (nAChRs on SH-SY5Y cells [3]; absence of PNU): about 44%
- estimated maximum (nAChRs on SH-SY5Y cells [3]; absence of PNU, normalized to 10 µM nicotine): ~ 0.44
- relative pEC50 (AUC of fluorescence) (nAChRs on SH-SY5Y cells [3]; absence of PNU, normalized to 10 µM nicotine, fit for < 10 µM): 6.8 ± 0.36
- concentration of peak response (nAChRs on SH-SY5Y cells [3]; presence of PNU, declining responses at higher concentrations): ~ 3 µM
- estimated maximum (nAChRs on SH-SY5Y cells [3]; presence of PNU, normalized to 10 µM nicotine): ~ 0.93
